“And” between values parts separate entries of the source, which are not always exact repeats. Equal entries are not always repeated.
Experiments:
[1] = test system: MDA-MB-231; test: drug sensitivity score (DSS); higher = more sensitive; extreme values may be limits of the assay; conditions: incubation time: 72 h
How it was run: (§1)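 For the IC50 and drug sensitivity score, logistic dose–response curves were fitted in Dotmatics Studies. The score compares curve area with a reference area and is normalised by log of top response. Input data were CellTiter-Blue fluorescence readings from MDA-MB-231 cells, transfected a day earlier with BRCA1 or non-targeting control siRNA, that had spent 72 h at 37 °C and 5% CO2 at 4000 cells per well in 384-well plates with compounds at 5 concentrations.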

[2] = test system: MDA-MB-231; conditions: incubation time: 72 h
How it was run: as §1

[3] = siRNA: siControl (non-targeting)

Row | SMILES | drug sensitivity score ([1]; siRNA: siBRCA1) | drug sensitivity score [1, 3] | IC50 of cell viability ([2]; siRNA: siBRCA1) | IC50 of cell viability [2, 3]
1 | Cc1nc(Nc2ncc(C(=O)Nc3c(C)cccc3Cl)s2)cc(N2CCN(CCO)CC2)n1 [Dasatinib] | 27 | 27 | 11 nM | 11.3 nM
2 | COc1cccc2c1C(=O)c1c(O)c3c(c(O)c1C2=O)C[C@@](O)(C(C)=O)C[C@@H]3O[C@H]1C[C@H](N)[C@H](O)[C@H](C)O1 [Daunorubicin] | 19.8 | 24.9 | 159 nM | 52.2 nM
3 | Nc1ncn([C@H]2C[C@H](O)[C@@H](CO)O2)c(=O)n1 [Decitabine] | – | 0 | > 4170 nM | > 4170 nM
4 | C[C@@H]1C[C@H]2[C@@H]3CCC4=CC(=O)C=C[C@]4(C)[C@@]3(F)[C@@H](O)C[C@]2(C)[C@@]1(O)C(=O)CO [Dexamethasone] | 0 | 0 | > 4170 nM | > 4170 nM
5 | CC(=O)O[C@@]12CO[C@@H]1C[C@H](O)[C@@]1(C)C(=O)[C@H](O)C3=C(C)[C@@H](OC(=O)[C@H](O)[C@@H](NC(=O)OC(C)(C)C)c4ccccc4)C[C@@](O)([C@@H](OC(=O)c4ccccc4)[C@H]21)C3(C)C [Docetaxel] | 32.7 and 31.2 | 33.3 and 33.8 | 2.71 nM | 1.57 nM and 1.83 nM
6 | Cc1ccc(-n2nc(C(C)(C)C)cc2NC(=O)Nc2ccc(OCCN3CCOCC3)c3ccccc23)cc1 [Doramapimod] | 0 | 0 | > 4170 nM | > 4170 nM
7 | CN1CCN(c2ccc3nc(-c4c(N)c5c(F)cccc5[nH]c4=O)[nH]c3c2)CC1 [Dovitinib] | 0 | 0 | > 4170 nM | > 4170 nM
8 | COc1cccc2c1C(=O)c1c(O)c3c(c(O)c1C2=O)C[C@@](O)(C(=O)CO)C[C@@H]3O[C@H]1C[C@H](N)[C@H](O)[C@H](C)O1 [Doxorubicin] | 17.9 | 19.6 | 205 nM | 148 nM
9 | Nc1ccccc1NC(=O)c1ccc(CNC(=O)OCc2cccnc2)cc1 [Entinostat] | 0 | 2.12 | > 4170 nM | > 4170 nM
10 | Cn1cc(C2=C(c3cn(C4CCN(Cc5ccccn5)CC4)c4ccccc34)C(=O)NC2=O)c2ccccc21 [Enzastaurin] | 0 | 0 | > 4170 nM | > 4170 nM
11 | C/C(=C\c1csc(C)n1)[C@@H]1C[C@@H]2O[C@]2(C)CCC[C@H](C)[C@H](O)[C@@H](C)C(=O)C(C)(C)[C@@H](O)CC(=O)O1 [Epothilone B (Patupilone)] | 23.4 | 23.6 | 29.4 nM | 29.1 nM
12 | C#Cc1cccc(Nc2ncnc3cc(OCCOC)c(OCCOC)cc23)c1 [Erlotinib] | 0 | 0 | > 4170 nM | > 4170 nM
13 | COc1cc([C@@H]2c3cc4c(cc3[C@@H](O[C@@H]3O[C@@H]5CO[C@@H](C)O[C@H]5[C@H](O)[C@H]3O)[C@H]3COC(=O)[C@H]23)OCO4)cc(OC)c1O [Etoposide] | 10 | 2.9 | 91.9 nM | > 4170 nM
14 | CO[C@H]1C[C@@H]2CC[C@@H](C)[C@@](O)(O2)C(=O)C(=O)N2CCCC[C@H]2C(=O)O[C@H]([C@H](C)C[C@@H]2CC[C@@H](OCCO)[C@H](OC)C2)CC(=O)[C@H](C)/C=C(\C)[C@@H](O)[C@@H](OC)C(=O)[C@H](C)C[C@H](C)/C=C/C=C/C=C/1C [Everolimus] | 19.8 and 16.9 | 21.1 and 21.8 | 1.12 nM and < 0.833 nM | < 0.833 nM
15 | C=C1C[C@@H]2[C@H](CC[C@]3(C)C(=O)CC[C@@H]23)[C@@]2(C)C=CC(=O)C=C12 [Exemestane] | 0 | 0 | > 4170 nM | > 4170 nM
16 | O=S(=O)(c1cccc2cnccc12)N1CCCNCC1 [Fasudil] | 0 | 0 | > 4170 nM | > 4170 nM

Row | SMILES | drug sensitivity score ([1]; siRNA: siBRCA1) | drug sensitivity score [1, 3] | IC50 of cell viability ([2]; siRNA: siBRCA1) | IC50 of cell viability [2, 3]
17 | CC(C)(C)NC(=O)[C@H]1CC[C@H]2[C@@H]3CC[C@H]4NC(=O)C=C[C@]4(C)[C@H]3CC[C@]12C [Finasteride] | 0 | 0 | > 4170 nM | > 4170 nM
18 | CCCCCCCCc1ccc(CCC(N)(CO)CO)cc1 [Fingolimod] | 5.09 | 7.79 | 3000 nM | 1710 nM
19 | O=c1[nH]c(=O)n([C@H]2C[C@H](O)[C@@H](CO)O2)cc1F [Floxuridine] | 8.85 | 11.5 | 748 nM | 291 nM
20 | Nc1nc(F)nc2c1ncn2[C@@H]1O[C@H](CO)[C@@H](O)[C@@H]1O [Fludarabine] | 0 | 3.39 | > 4170 nM | 333 nM
21 | O=c1[nH]cc(F)c(=O)[nH]1 [Fluorouracil] | 1.13 | 0.956 | > 4170 nM | > 4170 nM
22 | CC(C)C(=O)Nc1ccc([N+](=O)[O-])c(C(F)(F)F)c1 [Flutamide] | 0 | 0 | > 4170 nM | > 4170 nM
23 | COc1cc2c(Oc3ccc(NC(=O)C4(C(=O)Nc5ccc(F)cc5)CC4)cc3F)ccnc2cc1OCCCN1CCOCC1 [Foretinib] | 13.6 | 12.8 | 503 nM | 585 nM
24 | C[C@]12CC[C@@H]3c4ccc(O)cc4C[C@@H](CCCCCCCCC[S+]([O-])CCCC(F)(F)C(F)(F)F)[C@H]3[C@@H]1CC[C@@H]2O (some centres not stated) [Fulvestrant] | 0 | 0 | > 4170 nM | > 4170 nM
25 | CS(=O)(=O)N1CCN(Cc2cc3nc(-c4cccc5[nH]ncc45)nc(N4CCOCC4)c3s2)CC1 [GDC-0941 (Pictilisib)] | 7.18 | 12 | 2530 nM | 570 nM
26 | COc1cc2ncnc(Nc3ccc(F)c(Cl)c3)c2cc1OCCCN1CCOCC1 [Gefitinib] | 0 | 0 | > 4170 nM | > 4170 nM
27 | Nc1ccn([C@@H]2O[C@H](CO)[C@@H](O)C2(F)F)c(=O)n1 [Gemcitabine] | 7.87 | 12.8 | 2490 nM | 78.7 nM
28 | CC(C)C[C@H](NC(=O)[C@@H](COC(C)(C)C)NC(=O)[C@H](Cc1ccc(O)cc1)NC(=O)[C@H](CO)NC(=O)[C@H](Cc1c[nH]c2ccccc12)NC(=O)[C@H](Cc1cnc[nH]1)NC(=O)[C@@H]1CCC(=O)N1)C(=O)N[C@@H](CCCNC(=N)N)C(=O)N1CCC[C@H]1C(=O)NNC(N)=O [Goserelin] | 0 | 0 | > 4170 nM | > 4170 nM
29 | NC(=O)NO [Hydroxyurea] | 0 | 0 | > 4170 nM | > 4170 nM
30 | CC(=O)[C@]1(O)Cc2c(O)c3c(c(O)c2[C@@H](O[C@H]2C[C@H](N)[C@H](O)[C@H](C)O2)C1)C(=O)c1ccccc1C3=O [Idarubicin] | 22 | 21 | 91.4 nM | 115 nM
31 | O=P1(NCCCl)OCCCN1CCCl (configuration not stated) [Ifosfamide] | 0 | 0 | > 4170 nM | > 4170 nM
32 | Cc1ccc(NC(=O)c2ccc(CN3CCN(C)CC3)cc2)cc1Nc1nccc(-c2cccnc2)n1 [Imatinib] | 0 | 0 | > 4170 nM | > 4170 nM

Source: the supplement of paper PMC4649846
